Assay results taken from patent publication US20230190887A1, “TARGETING G3BP AGGREGATION TO PREVENT NEURODEGENERATION” (priority 2019, published 2023).

Test system: C9ORF72 iPS-MN axons
Test: OPP labeling of local protein synthesis in iPS-MN axons
Format: cell-based, human
Conditions: axonal-exclusive application of 20 μM peptide
Description: Formation of G3BP1-positive RNP condensates is strongly associated with repressed RNA translation, see Sahoo, P. K. et al. A Ca^2+ dependent switch activates axonal casein kinase 2α translation and drives G3BP1 granule disassembly for axon regeneration. Curr. Biol. 30, 4882-4895.e6 (2020), and altered mRNA transport, see Liao, Y. C. et al. RNA granules hitchhike on lysosomes for long-distance transport, using Annexin All as a molecular tether. Cell 179, 147-164.e20 (2019), leading to reduced protein synthesis, see Sahoo, P. K. et al. Axonal G3BP1 stress granule protein limits axonal mRNA translation and nerve regeneration. Nat. Commun. 9, 1-14 (2018). […] By quantifying OPP puncta density within in vitro NMJs, we identified robust protein synthesis within control co-cultures, while protein synthesis in TDPΔNLS NMJs was severely impaired (FIG. 19 3k-l). […] Unpaired-t-test, two-sided ****p<0.0001. c Images and d-f quantification of NFH, pTDP-43 and G3BP1 and their colocalization in C9ORF72 iPS-MN axons either treated or not with G3BP1 peptide. Quantifications of G3BP1 particle density (d), G3BP1-pTDP-43 coloc-particle density (e) and G3BP1-pTDP-43 coloc-particle size (f) from C9ORF72 and control iPS-MN axons, either treated or not with G3BP1 peptide. […] One-way-ANOVA with Holm-Sidak correction. […], ****p<0.0001. i Images and j quantification of OPP puncta density in control or ΔNLS MN axons. […]

YGNKKNNNQNNN-VVEPEPEPEPEPEPEPVSE [G3BP1 190-208 peptide]
OPP puncta density (axonal translation): reversed
